According to ChEMBL document CHEMBL5532665 (J Med Chem, 2024):

What follows are molecules tested against T1, Mu-type opioid receptor (Homo sapiens, UniProt P35372) (assay: Agonist activity at human MOR expressed in CHO-K1 cells co-expressing G-alpha15 by calcium mobilization assay). Settings: cho-k1.
T1 sequence (P35372 whole entry): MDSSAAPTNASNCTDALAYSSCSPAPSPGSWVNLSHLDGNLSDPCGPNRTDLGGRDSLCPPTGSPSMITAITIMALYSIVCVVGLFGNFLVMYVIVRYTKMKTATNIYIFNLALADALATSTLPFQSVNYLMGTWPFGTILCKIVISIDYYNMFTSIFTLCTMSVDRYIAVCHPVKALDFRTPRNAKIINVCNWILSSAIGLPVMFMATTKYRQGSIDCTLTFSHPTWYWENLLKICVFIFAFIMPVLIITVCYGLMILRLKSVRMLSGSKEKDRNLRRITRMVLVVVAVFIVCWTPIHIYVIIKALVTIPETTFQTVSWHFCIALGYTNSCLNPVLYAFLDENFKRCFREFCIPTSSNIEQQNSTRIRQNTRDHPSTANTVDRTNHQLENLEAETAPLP
Format: functional, cell-based
`NC(=O)[C@@H]1CC(=O)NCCCC[C@@H](NC(=O)[C@@H](N)Cc2ccc(O)cc2)C(=O)NCC(=O)N[C@@H](Cc2ccccc2)C(=O)N1` was tested, and the EC50 was 1.4 nM. Work on `Cc1ccc(C[C@@H]2NC(=O)CNC(=O)[C@H](NC(=O)[C@@H](N)Cc3ccc(O)cc3)CCCCNC(=O)C[C@@H](C(=O)N3CCC[C@@H]3C(N)=O)NC2=O)cc1` yielded an EC50 of 29.1 nM. Molecule `NC(=O)[C@H]1CCCN1C(=O)[C@@H]1CC(=O)NCCCC[C@@H](NC(=O)[C@@H](N)Cc2ccc(O)cc2)C(=O)NCC(=O)N[C@@H](CC2CCCCC2)C(=O)N1` has an EC50 of 43.2 nM. With `Cc1cc(O)cc(C)c1C[C@H](N)C(=O)N[C@@H]1CCCCNC(=O)C[C@@H](C(=O)N2CCC[C@@H]2C(N)=O)NC(=O)[C@H](Cc2ccccc2)NC(=O)CNC1=O` the EC50 was 7.3 nM. Work on `NC(=O)[C@H]1CCCN1C(=O)[C@@H]1CC(=O)NCCCC[C@@H](NC(=O)[C@@H](N)Cc2ccc(O)cc2)C(=O)NCC(=O)N[C@@H](CCc2ccccc2)C(=O)N1` yielded an EC50 of 184 nM. With `NC(=O)[C@H]1CCCN1C(=O)[C@@H]1CC(=O)NCCCC[C@@H](NC(=O)[C@@H](N)Cc2ccc(O)cc2)C(=O)NCC(=O)N(Cc2ccccc2)CC(=O)N1` the EC50 was 36.1 nM. For `C[C@@H]1NC(=O)[C@H](NC(=O)[C@@H](N)Cc2ccc(O)cc2)CCCCNC(=O)C[C@H](C(=O)N2CCC[C@H]2C(N)=O)NC(=O)[C@H](Cc2ccccc2)NC1=O`, the EC50 was 8.2 nM.

Each molecule was assayed against T1, Mu-type opioid receptor (assay: Agonist activity at human MOR expressed in CHO-K1 cells co-expressing G-alpha15 by calcium mobilization assay relative to control). Settings: filed as agonist.
Format: functional, cell-based
Work on `C[C@@H]1NC(=O)[C@H](NC(=O)[C@@H](N)Cc2ccc(O)cc2)CCCCNC(=O)C[C@H](C(=O)N2CCC[C@H]2C(N)=O)NC(=O)[C@H](Cc2ccccc2)NC1=O` yielded an Emax of 93.7%.

What follows are molecules tested against T2, Kappa-type opioid receptor (Homo sapiens, UniProt P41145) (assay: Agonist activity at human KOR expressed in CHO-K1 cells co-expressing G-alpha15 by calcium mobilization assay). Settings: cho-k1.
T2 sequence (P41145 whole entry): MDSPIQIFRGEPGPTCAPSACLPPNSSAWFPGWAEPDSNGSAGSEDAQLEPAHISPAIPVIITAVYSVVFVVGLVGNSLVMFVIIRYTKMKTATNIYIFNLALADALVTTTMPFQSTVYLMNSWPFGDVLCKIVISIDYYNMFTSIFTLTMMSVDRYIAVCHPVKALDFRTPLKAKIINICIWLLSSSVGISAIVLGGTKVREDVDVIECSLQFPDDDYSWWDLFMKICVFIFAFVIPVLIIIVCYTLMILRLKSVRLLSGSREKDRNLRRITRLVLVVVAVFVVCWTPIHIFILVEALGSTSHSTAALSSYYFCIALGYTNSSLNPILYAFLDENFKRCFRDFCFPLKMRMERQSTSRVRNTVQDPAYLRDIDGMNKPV
Format: functional, cell-based
In the case of `NC(=O)[C@@H]1CC(=O)NCCCC[C@@H](NC(=O)[C@@H](N)Cc2ccc(O)cc2)C(=O)NCC(=O)N[C@@H](Cc2ccccc2)C(=O)N1`, the EC50 is reported as 1290 nM. For `Cc1ccc(C[C@@H]2NC(=O)CNC(=O)[C@H](NC(=O)[C@@H](N)Cc3ccc(O)cc3)CCCCNC(=O)C[C@@H](C(=O)N3CCC[C@@H]3C(N)=O)NC2=O)cc1`, the EC50 was 2430 nM. Molecule `Cc1cc(O)cc(C)c1C[C@H](N)C(=O)N[C@@H]1CCCCNC(=O)C[C@@H](C(=O)N2CCC[C@@H]2C(N)=O)NC(=O)[C@H](Cc2ccccc2)NC(=O)CNC1=O` has an EC50 of 3550 nM. `C[C@@H]1NC(=O)[C@H](NC(=O)[C@@H](N)Cc2ccc(O)cc2)CCCCNC(=O)C[C@H](C(=O)N2CCC[C@H]2C(N)=O)NC(=O)[C@H](Cc2ccccc2)NC1=O` showed an EC50 of 4820 nM.

The molecules below were run against T2, Kappa-type opioid receptor (assay: Agonist activity at human KOR expressed in CHO-K1 cells co-expressing G-alpha15 by calcium mobilization assay relative to control). Settings: filed as agonist.
Format: functional, cell-based
In the case of `C[C@@H]1NC(=O)[C@H](NC(=O)[C@@H](N)Cc2ccc(O)cc2)CCCCNC(=O)C[C@H](C(=O)N2CCC[C@H]2C(N)=O)NC(=O)[C@H](Cc2ccccc2)NC1=O`, the Emax is reported as 51.4%.

The molecules below were run against T3, Delta-type opioid receptor (Homo sapiens, UniProt P41143) (assay: Agonist activity at human DOR expressed in CHO-K1 cells co-expressing G-alpha15 by calcium mobilization assay). Settings: cho-k1.
T3 sequence (P41143 whole entry): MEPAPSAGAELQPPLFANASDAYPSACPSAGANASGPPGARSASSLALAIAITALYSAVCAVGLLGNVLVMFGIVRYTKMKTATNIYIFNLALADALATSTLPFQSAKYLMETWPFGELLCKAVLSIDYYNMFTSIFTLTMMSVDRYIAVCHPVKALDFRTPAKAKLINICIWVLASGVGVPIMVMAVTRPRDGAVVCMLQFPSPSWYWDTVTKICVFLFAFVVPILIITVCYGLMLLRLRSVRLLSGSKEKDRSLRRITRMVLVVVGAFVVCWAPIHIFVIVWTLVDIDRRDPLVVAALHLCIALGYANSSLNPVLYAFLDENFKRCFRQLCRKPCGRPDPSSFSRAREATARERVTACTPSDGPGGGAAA
Format: functional, cell-based
`NC(=O)[C@@H]1CC(=O)NCCCC[C@@H](NC(=O)[C@@H](N)Cc2ccc(O)cc2)C(=O)NCC(=O)N[C@@H](Cc2ccccc2)C(=O)N1` gave an EC50 of 12.5 nM. Work on `Cc1ccc(C[C@@H]2NC(=O)CNC(=O)[C@H](NC(=O)[C@@H](N)Cc3ccc(O)cc3)CCCCNC(=O)C[C@@H](C(=O)N3CCC[C@@H]3C(N)=O)NC2=O)cc1` yielded an EC50 of 22.2 nM. `NC(=O)[C@H]1CCCN1C(=O)[C@@H]1CC(=O)NCCCC[C@@H](NC(=O)[C@@H](N)Cc2ccc(O)cc2)C(=O)NCC(=O)N[C@@H](CC2CCCCC2)C(=O)N1` was tested, and the EC50 was 804 nM. `Cc1cc(O)cc(C)c1C[C@H](N)C(=O)N[C@@H]1CCCCNC(=O)C[C@@H](C(=O)N2CCC[C@@H]2C(N)=O)NC(=O)[C@H](Cc2ccccc2)NC(=O)CNC1=O` gave an EC50 of 1.2 nM. `NC(=O)[C@H]1CCCN1C(=O)[C@@H]1CC(=O)NCCCC[C@@H](NC(=O)[C@@H](N)Cc2ccc(O)cc2)C(=O)NCC(=O)N[C@@H](CCc2ccccc2)C(=O)N1` showed an EC50 of 64.4 nM. `NC(=O)[C@H]1CCCN1C(=O)[C@@H]1CC(=O)NCCCC[C@@H](NC(=O)[C@@H](N)Cc2ccc(O)cc2)C(=O)NCC(=O)N(Cc2ccccc2)CC(=O)N1` was tested, and the EC50 was 837 nM. In the case of `C[C@@H]1NC(=O)[C@H](NC(=O)[C@@H](N)Cc2ccc(O)cc2)CCCCNC(=O)C[C@H](C(=O)N2CCC[C@H]2C(N)=O)NC(=O)[C@H](Cc2ccccc2)NC1=O`, the EC50 is reported as 52 nM.

Each molecule was assayed against T3, Delta-type opioid receptor (assay: Agonist activity at human DOR expressed in CHO-K1 cells co-expressing G-alpha15 by calcium mobilization assay relative to control). Settings: filed as agonist.
Format: functional, cell-based
For `C[C@@H]1NC(=O)[C@H](NC(=O)[C@@H](N)Cc2ccc(O)cc2)CCCCNC(=O)C[C@H](C(=O)N2CCC[C@H]2C(N)=O)NC(=O)[C@H](Cc2ccccc2)NC1=O`, the Emax was 96.6%.

Each molecule was assayed on Mus musculus (assay: Antinociceptive activity in Kunming mouse model assessed as latency of tail withdrawal at 138.8 nmol/kg, sc measured for 10 mins by tail-flick test relative to control). Settings: not given.
Format: functional
Work on `C[C@@H]1NC(=O)[C@H](NC(=O)[C@@H](N)Cc2ccc(O)cc2)CCCCNC(=O)C[C@H](C(=O)N2CCC[C@H]2C(N)=O)NC(=O)[C@H](Cc2ccccc2)NC1=O` yielded an MPE of 70.9%.

The molecules below were run on Mus musculus (assay: Antinociceptive activity in Kunming mouse model assessed as latency of tail withdrawal at 138.8 nmol/kg, sc measured for 30 mins by tail-flick test relative to control). Settings: 0.5 h.
Format: functional
`C[C@@H]1NC(=O)[C@H](NC(=O)[C@@H](N)Cc2ccc(O)cc2)CCCCNC(=O)C[C@H](C(=O)N2CCC[C@H]2C(N)=O)NC(=O)[C@H](Cc2ccccc2)NC1=O` showed an MPE of 88.9%.

The molecules below were run on Mus musculus (assay: Antinociceptive activity in Kunming mouse model assessed as latency of tail withdrawal at 138.8 nmol/kg, sc measured for 60 mins by tail-flick test relative to control). Settings: 1 h.
Format: functional
Molecule `C[C@@H]1NC(=O)[C@H](NC(=O)[C@@H](N)Cc2ccc(O)cc2)CCCCNC(=O)C[C@H](C(=O)N2CCC[C@H]2C(N)=O)NC(=O)[C@H](Cc2ccccc2)NC1=O` has an MPE of 70.1%.

These molecules were tested on Mus musculus (assay: Antinociceptive activity in Kunming mouse model assessed as latency of tail withdrawal at 138.8 nmol/kg, sc measured for 120 mins by tail-flick test relative to control). Settings: 2 h.
Format: functional
With `C[C@@H]1NC(=O)[C@H](NC(=O)[C@@H](N)Cc2ccc(O)cc2)CCCCNC(=O)C[C@H](C(=O)N2CCC[C@H]2C(N)=O)NC(=O)[C@H](Cc2ccccc2)NC1=O` the MPE was 27.4%.
